# Reference: patent publication US20020132853A1, “Capsaicin receptor ligands” (priority 2000, published 2002)
# Target: T1, human capsaicin receptor (Homo sapiens, UniProt Q8NER1)
# T1 construct: expression consrtuct encoding the full length human capsaicin receptor; expressed in transfected cells
# Test: Antagonist assay for Capsaicin receptor mediated calcium mobilization
# Assay type: cell-based
# Conditions: Table III, read-out: EC50 (the source's name)
# Experimental: Calcium Mobilization Assay
# Cells transfected with expression plasmids (as described in Example 10) and thereby expressing the human capsaicin receptor are seeded and grown to 70-90% confluency in FALCON black-walled, clear-bottomed 96-well plates (#3904, BECTON-DICKINSON, Franklin Lakes, N.J.) . The culture media are emptied from the 96 well plates and FLUO-3 AM calcium sensitive dye (Molecular Probes, Eugene, OR) is added to each well (dye solution: 1 mg FLUO-3 AM, 440 uL DMSO and 440 ul 20% pluronic acid in DMSO, diluted 1:4, 50 ul diluted solution per well). Plates are covered with aluminum foil and incubated at 37° C for 1-2 hours in an environment containing 5% CO2. After the incubation the dye is emptied from the plates, and the cells are washed once with Krebs-Ringer HEPES (KRH) buffer (25 mM HEPES, 5 mM KCl, 0.96 mM NaH2PO4, 1 MM MgSO4, 2 mM CaCl2, 5 mM glucose, 1 mM probenecid, pH 7.4), and resuspended in KRH buffer.
# Agonist (e.g., olvanil, capsaicin, or RTX)-induced calcium mobilization is monitored using either FLUOROSKAN ASCENT (Labsystems, Franklin, Mass.) or FLIPR (fluorometric imaging plate reader system, Molecular Devices, Sunnyvale, Calif.) instruments. Similarly, varying concentrations of the antagonists ruthenium red or capsazepine are added to cells concurrently with agonist (e.g., 25-50 nM capsaicin). For agonist-induced calcium responses, data obtained between 30 and 60 seconds after agonist application are used to generate the EC50 values. […] software (Synergy Software, Reading, Pa.) was utilized to fit the data to the equation: […]
# to determine the EC50 for the response. In this equation, y is the maximum fluorescence signal, x is the concentration of the agonist or antagonist, a is the Emax, b corresponds to the EC50 or IC50 value, and finally, c is the Hill coefficient.
# Assay for Determination of Capsaicin Receptor Antagonist Effects
# In order to measure the ability of a test compound to antagonize (inhibit) the response of cells expressing capsaicin receptors to capsaicin or other vanilloid agonist, the EC50 of capsaicin is first determined.
# An additional 20 ul of KRH buffer and 1 ul DMSO is added to each well of cells, prepared as described above. 100 ul capsaicin in KRH buffer is automatically transferred by the FLIPR instrument to each well.
# Test compounds are dissolved in DMSO, diluted in 20 ul KRH buffer so that the final concentration of test compounds in the assay well is between 1 uM and 5 uM, and added to cells prepared as described above. The 96 well plates containing prepared cells and test compounds are incubated in the dark, at room temperature for 0.5-6 hours. It is important that the incubation not continue beyond 6 hours. Just prior to determining the fluorescence response, 100 ul capsaicin in KRH buffer at twice the EC50 concentration determined from the concentration response curve is automatically added by the FLIPR instrument to each well of the 96 well plate for a final sample volume of 200 ul and a final capsaicin concentration equal to the EC50. The final concentration of test compounds in the assay wells is between 1 uM and 5 uM. […] Antagonists of the capsaicin receptor decrease this response by about 20%, preferably by about 50%, and most preferably by at least 80% as compared to matched control. The concentration of antagonist required to provide a 50% decrease is the EC50 for the antagonist (also referred to as the IC50).
# T1 sequence (Q8NER1 whole entry): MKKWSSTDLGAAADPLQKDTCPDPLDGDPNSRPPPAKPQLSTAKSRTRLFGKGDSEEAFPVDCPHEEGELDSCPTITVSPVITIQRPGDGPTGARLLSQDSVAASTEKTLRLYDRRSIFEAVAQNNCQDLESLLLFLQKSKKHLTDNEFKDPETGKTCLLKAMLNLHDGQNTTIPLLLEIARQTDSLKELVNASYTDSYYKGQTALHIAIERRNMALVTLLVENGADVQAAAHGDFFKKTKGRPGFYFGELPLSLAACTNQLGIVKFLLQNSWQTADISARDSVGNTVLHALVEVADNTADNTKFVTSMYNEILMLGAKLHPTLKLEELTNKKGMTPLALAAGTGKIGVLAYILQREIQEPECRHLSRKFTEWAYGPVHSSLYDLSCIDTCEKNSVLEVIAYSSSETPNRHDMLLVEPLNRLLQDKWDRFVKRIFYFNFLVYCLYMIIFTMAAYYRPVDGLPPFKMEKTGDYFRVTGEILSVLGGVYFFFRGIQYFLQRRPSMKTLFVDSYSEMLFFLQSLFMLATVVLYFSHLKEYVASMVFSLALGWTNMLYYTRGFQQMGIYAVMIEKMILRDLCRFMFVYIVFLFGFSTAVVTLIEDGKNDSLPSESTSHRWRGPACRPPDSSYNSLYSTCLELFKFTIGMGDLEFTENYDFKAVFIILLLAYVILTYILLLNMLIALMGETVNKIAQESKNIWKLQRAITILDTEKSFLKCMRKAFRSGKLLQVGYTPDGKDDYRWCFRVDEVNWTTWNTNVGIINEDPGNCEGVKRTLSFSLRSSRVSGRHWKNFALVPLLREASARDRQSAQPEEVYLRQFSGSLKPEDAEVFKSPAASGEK
row,IC50,SMILES
1,< 1000 nM,"COc1cccnc1N1CCN(C(=O)Nc2ccc(C3CCCCC3)cc2)[C@H](C)C1 [Compound 47, (2R)-N-(4-cyclohexylphenyl)-4-(3-methoxypyridin-2-yl)-2-methylpiperazine-1-carboxamide]"
2,< 1000 nM,"CC(C)c1ccc(NC(=O)N2CCN(c3ncccc3C(F)(F)F)CC2C(C)C)cc1 (centres unmarked) [Compound 74, 2-isopropyl-N-(4-isopropylphenyl)-4-[3-(trifluoromethyl)pyridin-2-yl]piperazine-1-carboxamide]"
3,< 1000 nM,"C[C@@H]1CN(c2ncccc2Cl)CCN1C(=O)Nc1ccc(C2CCOCC2)cc1 [Compound 49, (2R)-4-(3-chloropyridin-2-yl)-2-methyyl-N-(4-tetrahydro-2H-pyran-4-ylphenyl)piperazne-1-carboxamide]"
4,< 1000 nM,"C[C@@H]1CN(c2ncccc2C#N)CCN1C(=O)Nc1ccc(C(C)(C)C)cc1 [Compound 82, (2R)-N-(4-tert-butylphenyl)-4-(3-cyanopyridin-2-yl)-2-methylpiperazine-1-carboxamide]"
5,< 1000 nM,"C[C@@H]1CN(c2ncccc2F)CCN1C(=O)Nc1ccc(C(F)(F)F)cc1 [Compound 75, (2R)-4-(3-fluoropyridin-2-yl)-2-methyl-N-[4-(trifluoromethyl)phenyl]piperazine-1-carboxamide]"
6,< 1000 nM,"CC1CN(c2ncccc2Cl)CC(C)N1C(=O)Nc1ccc(C(C)(C)C)cc1 (centres unmarked) [Compound 32, N-(4-tert-butylphenyl)-4-(3-chloropyridin-2-yl)-2,6-dimethylpiperazine-1-carboxamide]"
7,< 1000 nM,"CCC1CN(c2ncccc2Cl)CCN1C(=O)Nc1ccc(C(C)(C)C)cc1 (centres unmarked) [Compound 58, N-(4-tert-butylphenyl)-4-(3-chloropyridin-2-yl)-2-ethylpiperazine-1-carboxamide]"
8,< 1000 nM,"C[C@@H]1CN(c2ncccc2F)CCN1C(=O)Nc1ccc(C2CCCCC2)cc1 [Compound 78, (2R)-N-(4-cyclohexylphenyl)-4-(3-fluoropyridin-2-yl)-2-methylpiperazine-1-carboxamide]"
9,< 1000 nM,"C[C@@H]1CN(c2ncccc2Cl)CCN1C(=O)Nc1ccc(C(C)(C)C)cc1 [Compound 21, (2R)-N-(4-tert-butylphenyl)-4-(3-chlorpyridin-2-yl)-2-methylpiperazine-1-carboxamide]"
10,< 1000 nM,"CCc1nc(-c2ccc(NC(=O)N3CCN(c4ncccc4Cl)C[C@H]3C)cc2)cs1 [Compound 53, (2R)-4-(3-chloropyridin-2-yl)-N-[4-(2-ethyl-1,3-thiazol-4-yl)phenyl]-2-methylpiperazine-1-carboxamide]"
11,< 1000 nM,"C[C@@H]1CN(c2nccc3ccccc23)CCN1C(=O)Nc1ccc(C2CCCCC2)cc1 [Compound 42, (2R)-N-(4-cyclohexylphenyl)-4-isoquinolin-1-yl-2-methylpiperazine-1-carboxamide]"
12,< 1000 nM,"C[C@@H]1CN(c2ncccc2C(F)(F)F)CCN1C(=O)Nc1ccc(C(F)(F)F)cc1 [Compound 28, (2R)-2-methyl-N-[4-(trifluoromethyl)phenyl]-4-[3-(trifluoromethyl)pyridin-2-yl]piperazine-1-carboxamide]"
13,< 1000 nM,"C[C@@H]1CN(c2ncccc2C(F)(F)F)CCN1C(=O)Nc1ccc(C(C)(C)C#N)cc1 [Compound 57, (2R)-N-[4-(1-cyano-1-methylethyl)phenyl]-2-methyl-4-[3-(trifluoromethyl)pyridin-2-yl]piperazine-1-carboxamide]"
14,< 1000 nM,"C[C@@H]1CN(c2ncccc2C(F)(F)F)CCN1C(=O)Nc1ccc(C(C)(C)C)cc1 [Compound 29, (2R)-N-(4-tert-butylphenyl)-2-methyl-4-[3-(trifluoromethyl)pyridin-2-yl]piperazine-1-carboxamide]"
15,< 1000 nM,"C[C@@H]1CN(c2ncccc2Cl)CCN1C(=O)Nc1ccc(C2=CCOCC2)cc1 [Compound 48, (2R)-4-(3-chloropyridin-2-yl)-N-[4-(3,6-dihydro-2H-pyran-4-yl)phenyl]-2-methylpiperazine-1-carboxamide]"

# Same assay, conditions: Table IV, read-out: EC50 (the source's name)
row,IC50,SMILES
1,< 1000 nM,"C[C@@H]1CN(c2ncccc2Cl)CCN1C(=O)Nc1ccc(C(F)(F)F)cn1 [Compound 94, (2R)-4-(3-chloropyridin-2-yl)-2-methyl-N-[5-(trifluoromethyl)pyridin-2-yl]piperazine-1-carboxamide]"
2,< 1000 nM,"CC(C)C1CCC(NC(=O)N2CCN(c3ncccc3Cl)C[C@H]2C)CC1 (stereo partly drawn) [Compound 100, (2R)-4-(3-chloropyridin-2-yl)-N-(4-isopropylcyclohexyl)-2-methylpiperazine-1-carboxamide]"
3,< 1000 nM,"C[C@@H]1CN(c2ncccc2Cl)CCN1C(=O)Nc1ccc(C(F)(F)F)nc1 [Compound 98, (2R)-4-(3-chloropyridin-2-yl)-2-methyl-N-[6-(trifluoromethyl)pyridin-3-yl]piperazine-1-carboxamide]"
4,< 1000 nM,"C[C@@H]1CN(c2ncccc2Cl)CCN1C(=O)NC1CCC(C(C)(C)C)CC1 (stereo partly drawn) [Compound 99, (2R)-N-(4-tert-butylcyclohexyl)-4-(3-chloropyridin-2-yl)-2-methylpiperazine-1-carboxamide]"

# Same assay, conditions: Table V, read-out: EC50 (the source's name)
row,IC50,SMILES
1,< 1000 nM,"C[C@@H]1CN(c2ncccc2Cl)CCN1C(=O)Nc1ccc(F)c(C(F)(F)F)c1 [Compound 159, (2R)-4-(3-chlorpyridin-2-yl)-N-[4-fluoro-3-(trifluoromethyl)phenyl]-2-methylpiperazine-1-carboxamide]"
2,< 1000 nM,"O=C(Nc1ccc(C(F)(F)F)cc1)N1CCN(c2ncccc2C(F)(F)F)CC1CF (centres unmarked) [Compound 153, 2-(fluoromethyl)-N-[4-(trifluoromethyl)phenyl]-4-[3-(trifluoromethyl)pyridin-2-yl]piperazine-1-carboxamide]"
3,< 1000 nM,"O=C(Nc1cccc([N+](=O)[O-])c1)N1CCN(c2ncccc2C(F)(F)F)CC1 [Compound 116, N-(3-nitrophenyl)-4-[3-(trifluoromethyl)pyridin-2-yl]piperazine-1-carboxamide]"
4,< 1000 nM,"O=C(Nc1cccc(Cl)c1)N1CCN(c2cc(C(F)(F)F)ccn2)CC1 [Compound 109, N-(3-chlorophenyl)-4-[4-(trifluoromethyl)pyridin-2-yl]piperazine-1-carboxamide]"
5,< 1000 nM,"C[C@@H]1CN(c2ncccc2N(S(C)(=O)=O)S(C)(=O)=O)CCN1C(=O)Nc1ccc(C(C)(C)C)cc1 [Compound 123, (2R)-4-{3-[bis(methylsulfonyl)amino]pyridin-2-yl}-N-(4-tert-butylphenyl)-2-methylpiperazine-1-carboxamide]"
6,< 1000 nM,"C=C(c1ccc(NC(=O)N2CCN(c3ncccc3F)C[C@H]2C)cc1)C(F)(F)F [Compound 127, (2R)-4-(3-fluoropyridin-2-yl)-2-methyl-N-{4-[1-(trifluoromethyl)vinyl]phenyl}piperazine-1-carboxamide]"
7,< 1000 nM,"C[C@@H]1CN(c2ncccc2C(F)(F)F)CCN1C(=O)Nc1ccc2c(c1)Cc1ccccc1-2 [Compound 143, (2R)-N-(9H-fluoren-2-yl)-2-methyl-4-[3-(trifluoromethyl)pyridin-2-yl]piperazine-1-carboxamide]"

# Same assay, conditions: Table VI, read-out: EC50 (the source's name)
row,IC50,SMILES
1,< 1000 nM,"C[C@@H]1CN(c2nccnc2Cl)CCN1C(=O)Nc1ccc(C2CCCCC2)cc1 [Compound 166, (2R)-4-(3-chloropyrazin-2-yl)-2-methyl-N-{4-cyclohexyl-phenyl}piperazine-1-carboxamide]"
2,< 1000 nM,C[C@@H]1CN(c2ncccc2Cl)CCN1C(=S)Nc1ccc(C(F)(F)F)cc1 [Compound 172]
3,< 1000 nM,"C[C@@H]1CN(c2nccnc2Cl)CCN1C(=O)Nc1ccc(C(F)(C(F)(F)F)C(F)(F)F)cc1 [Compound 164, (2R)-4-(3-chloropyrazin-2-yl)-2-methyl-N-{4-[1,2,2,2-tetrafluoro-1-(trifluoromethyl)ethyl]phenyl}piperazine-1-carboxamide]"
